The term IC50 denotes the point on the concentration scale where inhibition reaches its midpoint. By inhibition is commonly meant the change of the read-out against control, counted positive when it falls.

Assay [1] has as its system subcutaneously implanted U87 human glioma cells. The following applies: nude mice, subcutaneous, 0.5 mg/mouse; cited from earlier work.
A further assay deals with U87 glioma cells. The conditions noted are these: Boyden chamber; cited from earlier work.
The test system of assay [2] is U87 cells. Description: Evaluation of apoptosis (propidium iodide flow cytometry), U87. It is filed as cell-based, human. The following applies: 24 h. The procedure: 3.4×10^5 tumour cells were cultured in 6 well-plates in the presence or absence of CBDV or THCV for 24 h, as described above and the percentage of apoptotic cells on the total cell population (adhering/detached cells) was evaluated. Briefly, cells were collected, washed, and centrifuged at 1300 rpm. They were then fixed in ethanol 70% for at least 30 min at −20° C. After centrifugation, the cell pellet was gently re-suspended in 1 ml of PBS solution containing propidium iodide (PI, 50 μg/ml) and RNAse (20 μg/ml). Cells were analyzed after a minimum of 30 min of incubation in the dark at room temperature, and apoptosis was detected in individual cells using a flow cytometer (equipped with a single 488-nm argon laser; BD Biosciences, San Jose, Calif.) by reduced fluorescence of PI in apoptotic nuclei.

In a further assay the test system is U87 human glioma cells. Description: MTT colorimetric cell viability assay, U87. The following applies: for Effect on tumour cell viability (MTT test), alone / Effect of CB1 antagonist on inhibition of cell proliferation / Effect of CB2 antagonist on inhibition of cell proliferation / Effect of TRPV1 vanilloid antagonist on inhibition of cell proliferation: U87; for IC50: Homo sapiens, U-87 MG, 24 h, read-out: IC50, drop of mitochondrial oxidative metabolism (MTT test); for Effect of CB1 antagonist on inhibition of cell proliferation: AM 251 (0.5 μM) added; for Effect of CB2 antagonist on inhibition of cell proliferation: SR 144528 (0.5 μM) for CBG, AM630 (0.5 μM) for CBDV; for Effect of TRPV1 vanilloid antagonist on inhibition of cell proliferation: capsazepine (0.625 μM) added. It is filed as cell-based. The procedure:
The human glioma cell line U87-MG was obtained from the American Type Culture Collection (Rockville, USA). Cells were maintained in DMEM supplemented with 10% heat-inactivated foetal bovine serum (Euroclone, Italy), 1% glutamine, 1% antibiotic mixture, 1% sodium pyruvate, 1% non-essential amino acids, at 37° C. in a humidified 5% CO2 atmosphere. Cells were seeded in complete medium. After a 24 h incubation, the medium was replaced by serum-free medium (ITSS medium), consisting of DMEM supplemented with 5 μg/ml insulin, 5 μg/ml transferrin, and 5 […].
(§1) To determine the effects of the phytocannabinoids upon cell viability, the applicants employed a MTT colorimetric assay ([3-(4,5-dimethyl-2-thiazolyl)-2,5-diphenyl-2H tetrazolium bromide]; Sigma-Aldrich). Briefly, U87 human glioma cells were seeded in a 96-well flat bottom multi-well at a density of 8000 cells/well. After 24 h, cells were treated with THCV, CBDV and CBG and/or receptor antagonists at the indicated concentrations. At the end of the incubation with the drugs, MTT (0.5 mg/ml final concentration) was added to each well and the incubation was then continued for 4 h. The insoluble formazan crystals were solubilized by the addition of 100 μl of 100% dimethyl sulfoxide. The plates were read at 570 nm using an automatic microtiter plate reader.

Assay [3] deals with human breast cell line MDA MB 231. The assay is described as follows: Migration in breast cell line MDA-MB 231. The conditions noted are these: MDA-MB 231 breast cell line. The format is cell-based.
Assay [4] has as its system T98G glioma cells. Description: Cell migration (Boyden chamber), T98G. The format is cell-based, human. The conditions noted are these: for Inhibition of migration of the cells: irrespective of the concentration used. The procedure: (§2) BD BioCoat Control Inserts (BD, USA) were used to examine the ability of U87-MG cells to migrate through an 8.0 micron pore size PET membrane. U87-MG cells (2.5×10^4 cells) were re-suspended in 500 μl of serum-free medium in presence of phytocannabinoids, and added to the upper chamber. The lower chamber was filled with 0.75 ml of complete medium as chemo-attractant. Cells were then incubated for 22 h at 37° C. After removal of cells on the upper surface of the membrane, cells on the lower surface were fixed in 100% methanol and stained with Diff-Quick stain (Medion Diagnostics, USA). Sixteen fields of cells were counted randomly in each well under a light microscope at 200× magnification. Data was expressed as the percentage of migrating cells as compared with the control. All the experiments were performed in triplicates and results were expressed as mean±SEM of three independent experiments.
(§3) In a further set of experiments, Examples 8-10 the compounds were evaluated on a different cell line, T98G, which was obtained from the American Type Culture Collection (Rockville, USA). The protocols employed were as described above.
The effect of CBDV on T98G glioma cells invasion and motility was determined by Boyden chamber assay.

The subject of a further assay is T98G cell. Description: Trypan Blue test, T98G. It is filed as cell-based, human. Here is the method:
To further confirm the ability of CBDV, CBG and THCV to inhibit T98G cell growth, a Trypan Blue test was also conducted.

The next assay has as its system U87-MG cells. The assay is described as follows: Cell motility assay (Boyden chamber), U87-MG. It is filed as cell-based, human. The procedure: as §2
The effect of THCV on U87 glioma cells invasion and motility was determined by Boyden chamber assay. […] The effect was even evident at concentrations as low as 0.25 μM.

Assay [5] concerns U87 cells. Description: Matrigel cell invasion assay, U87. The format is cell-based, human. The procedure:
(§4) BD BioCoat matrigel invasion chambers (BD, USA) were used to examine the ability of U87 cells to penetrate the extracellular matrix. U87 cells (2.5×10^4 cells) were re-suspended in 500 μl of serum-free medium in the presence of the phytocannabinoids, and added to the upper chamber. The lower chamber was filled with 0.75 ml of complete medium as chemo-attractant. Cells were then incubated for 22 h at 37° C. After removal of cells on the upper surface of the membrane, cells on the lower surface were fixed in 100% methanol and stained with Diff-Quick stain (Medion Diagnostics, USA). Sixteen fields of cells were counted randomly in each well under a light microscope at 200× magnification. Data was expressed as the percentage of invasive cells as compared with the control. All the experiments were performed in triplicates and results were expressed as mean±SEM of three independent experiments.
The matrigel invasion assay was carried out to further examine the effect of THCV on the invasiveness on U87 glioma cells.

The test system of assay [6] is T98G glioma cells. The assay is described as follows: Matrigel invasion assay, T98G. It is filed as cell-based, human. Here is the method:
as §4, §3
The matrigel invasion assay was carried out to further examine the effect of the CBDV on the invasiveness of T98G glioma cells.

Another assay concerns T98G cell line. Description: MTT test, T98G. It is filed as cell-based, human. The following applies: for Effect of pre-treatment with CB1 antagonist on anti-proliferative effect: AM251; for Effect of pre-treatment with CB2 antagonist on anti-proliferative effect: AM630. The procedure: as §1, §3
In general terms: Tetrazolium dyes change colour on reduction, which living cells bring about.

Assay [7] concerns recurrent glioblastoma multiforme. The following applies: nine patients, intra-tumoural; 95% confidence interval: 15-33; cited from earlier work.
[8] abbreviates: Homo sapiens, 24 h, read-out: IC50, drop of mitochondrial oxidative metabolism (MTT test).

Like-named read-outs stand apart in the source and are kept apart here.

In the case of `C=C(C)[C@@H]1CCC(C)=C[C@H]1c1c(O)cc(CCCCC)cc1O` [CBD, Cannabidiol, reference compound], in [1], the “Growth of subcutaneously implanted U87 human glioma cells” value was “significantly inhibited the growth”. In addition, the “Migration of U87 glioma cells” value with U87 glioma cells was “concentration-dependent inhibition”. The entries for the “Apoptosis, alone” value in the assay on U87 cells [2] (5 μM) and in the assay on U87 cells [2] (9 μM) were “did not cause any apoptosis” and “significant induction of apoptosis”, respectively. Further, the “Effect on tumour cell viability (MTT test), alone” value with U87 human glioma cells (5 μM) is listed as “ineffective”; in the assay with U87 human glioma cells (9 μM) it was “effective”.
In the case of `C=C(C)[C@@H]1CCC(C)=C[C@H]1c1c(O)cc(CCCCC)c(C(=O)O)c1O` [CBDA, Cannabidiolic acid], the Effect on migration result in assay [3] is “inhibit migration in a statistically significant manner”.
`C=C(C)[C@@H]1CCC(C)=C[C@H]1c1c(O)cc(CCC)cc1O` [CBDV, Cannabidivarin]: in the assay on T98G glioma cells [4], the “Concentration as low as which the anti-migratory effect was evident” value came to 0.5 µM and the “Inhibition of migration of the cells” value is reported as 55%. In addition, the “Cell viability, Trypan Blue test” value in the assay with T98G cell is listed as “inhibited cells viability in the same dose range as for MTT test”. In the assay on U87-MG cells, the “Concentration as low as which the anti-migratory effect was evident” value is 1 µM and the “Effect on cell migration” value is “significantly inhibited the migration”. For the same molecule, the “Concentration as low as which the anti-invasive effect was evident” value in the assay on U87 cells [5] (U87) came out at 1 µM. Besides, in the assay on U87 cells [5] (U87, across the concentrations tested), the “Decrease of the number of invading cells, average effect” value turned out to be 45%. Further, the “Inhibition of cell invasiveness” value with T98G glioma cells [6] (concentration range from 0.5 to 12 μM) is recorded as “about 70%”. In the assay with U87 human glioma cells, the IC50 turned out to be 24.2 µM; the “Effect of CB1 antagonist on inhibition of cell proliferation” value was “able to significantly increase the inhibitory action of CBDV on glioma cell growth at 19, 40, and 50 μM concentrations”; the “Effect of CB2 antagonist on inhibition of cell proliferation” value was “able to significantly increase the inhibitory action of CBDV on glioma cell growth at 19, 40, and 50 μM concentrations”; the “Effect of TRPV1 vanilloid antagonist on inhibition of cell proliferation” value was “a significant increase of the inhibitory action of CBDV was seen only at 14 and 19 μM”. The concentration for half-maximal inhibition (IC50) in the assay on T98G cell line (24 h after cannabinoid exposure) stood at 27 µM. Further, in the assay with T98G cell line, the “Effect of pre-treatment with CB1 antagonist on anti-proliferative effect” value is recorded as “exhibited some sensitivity” and the “Effect of pre-treatment with CB2 antagonist on anti-proliferative effect” value is reported as “exhibited some sensitivity”. In the assay with T98G cell line (Homo sapiens, 24 h, read-out: IC50, drop of mitochondrial oxidative metabolism (MTT test), T98G, 24 h after cannabinoid exposure), the IC50 came out at 27.1 µM.
With `CCCCCc1cc(O)c(C/C=C(\C)CCC=C(C)C)c(O)c1` [CBG, Cannabigerol], the “Effect on cell migration” value in the assay on T98G glioma cells [4] is listed as “did not inhibit”. For the same molecule, the “Cell viability, Trypan Blue test” value in the assay on T98G cell is on record as “inhibited cells viability in the same dose range as for MTT test”. For the same molecule, in the assay on U87-MG cells, the “Effect on cell migration” value is “did not inhibit”. Besides, the “Effect on cell invasion” value with U87 cells [5] (U87) is reported as “did not inhibit”. Further, in the assay with T98G glioma cells [6], the “Effect on cell invasion” value is listed as “did not inhibit”. In addition, in the assay with U87 human glioma cells, the IC50 was 12.1 µM; the “Effect of CB1 antagonist on inhibition of cell proliferation” value was “able to antagonize the inhibitory action of the phytocannabinoid on glioma cells growth only at 19 and 25 μM concentrations”; the “Effect of CB2 antagonist on inhibition of cell proliferation” value is on record as “failed to antagonize the anti-proliferative effect”; the “Effect of TRPV1 vanilloid antagonist on inhibition of cell proliferation” value is “failed to antagonize the anti-proliferative effect”. For the same molecule, in the assay on T98G cell line, the “Effect of pre-treatment with CB1 antagonist on anti-proliferative effect” value was “unaffected” and the “Effect of pre-treatment with CB2 antagonist on anti-proliferative effect” value is recorded as “unaffected”. The IC50 in the assay on T98G cell line (setting [8]) is 17.3 µM.
For the molecule `CCCCCc1cc(O)c2c(c1)OC(C)(C)[C@@H]1CCC(C)=C[C@@H]21` [THC, Tetrahydrocannabinol], the “Median survival from the beginning of cannabinoid administration” value in [7] is 24 weeks.
Turning to `CCCCCc1cc2c(c(O)c1C(=O)O)[C@@H]1C=C(C)CC[C@H]1C(C)(C)O2` [THCA, Tetrahydrocannabinolic acid], the Effect on migration entry in assay [3] was “inhibit migration in a statistically significant manner”.
Consider `CCCc1cc(O)c2c(c1)OC(C)(C)[C@@H]1CCC(C)=C[C@@H]21` [THCV, Tetrahydrocannabivarin], for which the “Inhibition of migration of the cells” value in the assay on T98G glioma cells [4] is “about 50%”; with U87-MG cells (irrespectively of the concentrations used, 22 h) it was 55%. The “Cell viability, Trypan Blue test” value with T98G cell is recorded as “inhibited cells viability in the same dose range as for MTT test”. Moreover, the “Concentration as low as which the anti-migratory effect was evident” value in the assay on U87-MG cells was 0.25 µM. Further, the inhibition at 5 µM in the assay with U87 cells [5] (Homo sapiens, U-87 MG, read-out: Inhibition of cell invasiveness) was 55%. In addition, in the assay with U87 cells [5] (U87, 0.5 and 1 μM), the “Inhibition of cell invasiveness” value is “about 35%”. Besides, the “Apoptosis, alone” value with U87 cells [2] (5 μM) and in the assay on U87 cells [2] (10 μM) was “did not cause any apoptosis” each time. The “Effect on cell invasion” value with T98G glioma cells [6] is recorded as “U-shaped dose-response curve”. For the same molecule, the IC50 in the assay on U87 human glioma cells came to 13.8 µM; with T98G cell line (setting [8]) it was 16.1 µM. For the same molecule, the “Effect on tumour cell viability (MTT test), alone” value was “ineffective” in the assay with U87 human glioma cells (5 μM) and “effective” in the assay on U87 human glioma cells (10 μM). Besides, in the assay on U87 human glioma cells, the “Effect of CB1 antagonist on inhibition of cell proliferation” value is “none of the antagonists was effective in reversing and/or potentiating the effect”. Also, in the assay with U87 human glioma cells, the “Effect of CB2 antagonist on inhibition of cell proliferation” value is given as “none of the antagonists was effective in reversing and/or potentiating the effect”. The “Effect of TRPV1 vanilloid antagonist on inhibition of cell proliferation” value in the assay on U87 human glioma cells is “none of the antagonists was effective in reversing and/or potentiating the effect”. For the same molecule, the “Effect of pre-treatment with CB1 antagonist on anti-proliferative effect” value with T98G cell line is recorded as “unaffected”. Also, the “Effect of pre-treatment with CB2 antagonist on anti-proliferative effect” value in the assay on T98G cell line was “unaffected”.

These data come from patent US20140221469A1, “PHYTOCANNABINOIDS FOR USE IN THE TREATMENT OF CANCER” (Otsuka Pharmaceutical Co., Ltd., priority 2011, published 2014).
